“Also recorded” adds a separate entry of the source. Where two headings read alike, the source gives them in different places.
Assays:
[1] = test system: panel of cancer cell lines; test: SRB assay, panel of cancer cell lines and normal fibroblast line; format: cell-based, human; conditions: 96 h exposure; for IC50: Homo sapiens, Fibroblast, read-out: IC50 values across the cell line panel
Protocol: (§1) Human cancer cell lines, MCF7 (breast), A549 (lung), Mia-PaCa2, PANC1 and HPAC (pancreatic), RCC4 and 786-0 renal, and the somatic human cell line WI-38 (lung fibroblast) were purchased from ATCC. Cell lines were maintained in appropriate medium supplemented with 10% foetal bovine serum (Invitrogen, UK), 2 mM L-glutamine (Invitrogen, Netherlands), and other components as specified by the suppliers. Cell lines were maintained at 37° C., 5% CO2 and routinely passaged. Drugs were dissolved in DMSO and filtered through 0.22 μm pore-size filter units before addition to cell line appropriate media. Cellular growth inhibition was measured using the sulforhodamine B (SRB) assay in 96 well plates as described previously.^1,2 Fifty percent inhibitory concentrations (IC50) were determined by taking the mean absorbance at 540 nm for each drug concentration expressed as a percentage of the absorbance of untreated control wells.
(§2) The anti-proliferative activity of the group of nine ND derivatives was assessed using the SRB assay following 96 h exposure to 2-fold serial dilutions of each compound (Table 2) in a panel of cancer cell lines together with a normal fibroblast line. […] In contrast the morpholine compounds all show sub-μM anti-proliferative activity in at least some of the cancer cell lines used and the two compounds 3d, 3h with n=3 —(CH2)n— linkers to the morpholine groups, show particularly potent activity in the Mia-PaCa2 and PANC1 pancreatic carcinoma and A549 lung adenocarcinoma cell lines (IC50 values of 10-20 nM).

[2] = test system: human telomeric G-quadruplex DNA (F21T); test: FRET melting assay, human telomeric quadruplex; format: binding; conditions: for telomeric quadruplex stabilization (in words): FRET melting; for change in melting temperature F21T 1 uM: 1 uM ligand; for change in melting temperature F21T 2 uM: 2 uM ligand
Excerpt: (§3) The ability of the naphthalene diimide compounds to stabilize DNA sequences was investigated using a fluorescence resonance energy transfer (FRET) assay modified to be used as a high-throughput screen in a 96-well format. Several quadruplex sequences were studied (the human telomeric G-quadruplex DNA sequence 5′-FAM-d(GGG[TTAGGG]3)-TAMRA-3′ and the duplex sequence 5′-FAM-dTATAGCTATA-HEG-TATAGCTATA-TAMRA-3′ (HEG linker: [(—CH2—CH2—O—)6])), as well as two overlapping sequences from the HSP90 promoter region (HSP90a and HSP90b):
(§4) The labelled oligonucleotides have attached to them the donor fluorophore FAM: 6-carboxyfluorescein and the acceptor fluorophore TAMRA: 6-carboxytetramethylrhodamine. The FRET probe sequences were diluted from stock to the correct concentration (400 nM) in a 60 mM potassium cacodylate buffer (pH 7.4) and then annealed by heating to 85° C. for 10 min, followed by cooling to room temperature in the heating block. The compound was stored as a 10 mM stock solution in DMSO; final solutions (at 2×concentration) were prepared using 10 mM HCl in the initial 1:10 dilution, after which 60 mM potassium cacodylate buffer (pH 7.4) was used in all subsequent steps. The maximum HCl concentration in the reaction volume (at a ligand concentration of 20 μM) is thus 200 μM, well within the range of the buffer used. Relevant controls were also performed to check for interference with the assay. 96-Well plates (MJ Research, Waltham, Mass.) were prepared by aliquoting 50 μl of the annealed DNA into each well, followed by 50 μl of the compound solutions. Measurements were made on a DNA Engine Opticon (MJ Research) with excitation at 450-495 nm and detection at 515-545 nm. Fluorescence readings were taken at intervals of 0.5° C. in the range 30-100° C., with a constant temperature being maintained for 30 s prior to each reading to ensure a stable value. Final analysis of the data was carried out using a script written in the program Origin 7.0 (OriginLab Corp., Northampton, Mass.). The advanced curve-fitting function in Origin 7.0 was used for calculation of ΔTm values. All determinations were performed in triplicate or better. Esds in ΔTm are ±0.1° C.
The ability of compounds 3a-h to stabilize a human telomeric quadruplex was assessed by a high-throughput FRET (Fluorescence Resonance Energy Transfer) melting technique. […] None of the furan tetrahydrofuran, pyranose or acyclic ether compounds has any effect on quadruplex or duplex stability.
(§5) The T-loop sequence represents duplex DNA.

Panc1 (pancreatic) cells = test: SRB growth inhibition assay, 96 hr exposure, Panc1; format: cell-based, human
Protocol: as §1, §2
(§6) Next a series of structural isomers were tested.

RCC4 (renal) cells = test: SRB growth inhibition assay, 96 hr exposure, RCC4; format: cell-based, human
Protocol: as §1, §2, §6

A549 (lung) cells = test: SRB growth inhibition assay, 96 hr exposure, A549; format: cell-based, human
Protocol: as §1, §2, §6

duplex DNA (T-loop) = test: FRET melting assay, duplex DNA; format: binding; conditions: for change in melting temperature Tloop 1 uM: 1 uM ligand; for change in melting temperature Tloop 2 uM: 2 uM ligand
Excerpt: as §3, §4, §5

[3] = test system: WI38 normal human fibroblast cells; test: SRB growth inhibition assay, 96 hr exposure, WI38; format: cell-based
Protocol: as §1
as §2, with “nM). […]” for “nM).”

786-O (renal) cells = test: SRB growth inhibition assay, 96 hr exposure, 786-O; format: cell-based, human; conditions: SRB assay, 96 hr exposure
Protocol: as §1, §2, §6

[4] = test system: MiaPaCa2 (pancreatic) cells; test: SRB growth inhibition assay, MiaPaCa2; format: cell-based, human; conditions: SRB assay, 96 hr exposure
Protocol: as §1, §2
Dose-response curves were used to guide the choice of compound concentration and time-points for the array experiments (FIG. 2a). […] To explore this response continuum the transcriptional signature of cells exposed for 24 h to 20 nM, 40 nM, 80 nM concentrations of 3d, or solvent alone as control, was analysed as described in Materials and Methods.
as §6

[5] = test system: HSP90b promoter quadruplex sequence; test: FRET melting assay, Hsp90B quadruplex; format: binding; conditions: for change in melting temperature Hsp90B 1 uM: 1 uM ligand; for change in melting temperature Hsp90B 2 uM: 2 uM ligand
Excerpt: as §3
as §4, with “±0.1° C. […]” for “±0.1° C.”

MCF-7 (breast) cells = test: SRB growth inhibition assay, 96 hr exposure, MCF-7; format: cell-based, human
Protocol: as §1, §2, §6

[6] = test system: HSP90a promoter quadruplex sequence; test: FRET melting assay, Hsp90A quadruplex; format: binding; conditions: for change in melting temperature Hsp90A 1 uM: 1 uM ligand; for change in melting temperature Hsp90A 2 uM: 2 uM ligand
Excerpt: as §3
as §4, with “±0.1° C. […]” for “±0.1° C.”

| SMILES | change in melting temperature Tloop 1 uM (duplex DNA (T-loop)) | change in melting temperature Tloop 2 uM (duplex DNA (T-loop)) | change in melting temperature F21T 1 uM [2] | change in melting temperature F21T 2 uM [2] | change in melting temperature Hsp90B 1 uM [5] | change in melting temperature Hsp90B 2 uM [5] | change in melting temperature Hsp90A 1 uM [6] | change in melting temperature Hsp90A 2 uM [6] | IC50 (Panc1 (pancreatic) cells; 96 hr exposure) | IC50 (RCC4 (renal) cells) | IC50 (A549 (lung) cells; 96 hr exposure) | IC50 [3] | IC50 (786-O (renal) cells) | IC50 [4] | IC50 (MCF-7 (breast) cells) | other results |
| --- | --- | --- | --- | --- | --- | --- | --- | --- | --- | --- | --- | --- | --- | --- | --- | --- |
| CN1CCN(CCCNc2cc3c4c(c(NCCCN5CCN(C)CC5)cc5c4c2C(=O)N(CC2CCCO2)C5=O)C(=O)N(CC2CCCO2)C3=O)CC1 (racemic) [Compound 3a, 4,9-bis((3-(4-methylpiperazin-1-yl)propyl)amino)-2,7-bis((tetrahydrofuran-2-yl)methyl)benzo[lmn][3,8]phenanthroline-1,3,6,8(2H,7H)-tetraone] |  |  |  |  |  |  |  |  |  |  |  |  |  |  |  | anti-proliferative activity (in words) [1]: devoid of significant anti-proliferative activity in all except the Mia-PaCa2 and A549 lines |
| CN1CCN(CCCNc2cc3c4c(c(NCCCN5CCN(C)CC5)cc5c4c2C(=O)N(Cc2ccco2)C5=O)C(=O)N(Cc2ccco2)C3=O)CC1 [Compound 3b, 2,7-bis(furan-2-ylmethyl)-4,9-bis((3-(4-methylpiperazin-1-yl)propyl)amino)benzo[lmn][3,8]phenanthroline-1,3,6,8(2H,7H)-tetraone] |  |  |  |  |  |  |  |  |  |  |  |  |  |  |  | IC50 [1]: 1 to 8 µM; telomeric quadruplex stabilization (in words) [2]: low level of quadruplex binding |
| COCCCN1C(=O)c2cc(NCCCN3CCN(C)CC3)c3c4c(cc(NCCCN5CCN(C)CC5)c(c24)C1=O)C(=O)N(CCCOC)C3=O [Compound 3e, 2,7-bis(3-methoxypropyl)-4,9-bis((3-(4-methylpiperazin-1-yl)propyl)amino)benzo[lmn][3,8]phenanthroline-1,3,6,8(2H,7H)-tetraone] |  |  |  |  |  |  |  |  |  |  |  |  |  |  |  | IC50 [1]: 1 to 8 µM; telomeric quadruplex stabilization (in words) [2]: very slight effect; also recorded: low level of quadruplex binding |
| CN1CCN(CCCNc2cc3c4c(c(NCCCN5CCN(C)CC5)cc5c4c2C(=O)N(CCCN2CCOCC2)C5=O)C(=O)N(CCCN2CCOCC2)C3=O)CC1 [MM41] | 5 | 9 | 27 | 32 | 29 | 33 | 33 | 36 |  |  |  |  |  |  |  | IC50 (Panc1 (pancreatic) cells; Homo sapiens, PANC-1, 96 hr exposure): 0.003 ± 0.0005 µM; IC50 (RCC4 (renal) cells; Homo sapiens, RCC4): 0.56 ± 0.05 µM; IC50 (A549 (lung) cells; Homo sapiens, A549, 96 hr exposure): 0.019 ± 0.005 µM; IC50 ([3]; Homo sapiens, WI-38): 0.23 ± 0.01 µM; IC50 (786-O (renal) cells; Homo sapiens, 786-0): 0.32 ± 0.01 µM; IC50 ([4]; Homo sapiens, MIA PaCa-2): 0.01 ± 0.01 µM; IC50 (MCF-7 (breast) cells; Homo sapiens, MCF7): 0.07 ± 0.007 µM |
| COCCCNc1cc2c3c(c(NCCCOC)cc4c3c1C(=O)N(CCCN1CCN(C)CC1)C4=O)C(=O)N(CCCN1CCN(C)CC1)C2=O [SKM022] | 0 | 0 | <2 | 16 | 22 | 26 | 22 | 24 | 2.5 ± 0.34 µM | 7.6 ± 0.01 µM | 5.75 ± 0.51 µM | > 25 µM | 16.1 ± 0.63 µM | 7.05 ± 0.83 µM | 17.5 ± 0.98 µM |  |
| CN1CCN(CCCN2C(=O)c3cc(NCCCN4CCOCC4)c4c5c(cc(NCCCN6CCOCC6)c(c35)C2=O)C(=O)N(CCCN2CCN(C)CC2)C4=O)CC1 [SKM029] | 5 | 9 | 29 | 34 | 30 | 34 | 34 | 36 | 0.002 ± 0.001 µM | 0.61 ± 0.07 µM | 0.007 ± 0.001 µM | 0.3 ± 0.023 µM | 0.44 ± 0.07 µM | 0.05 ± 0.002 µM | 0.014 ± 0.001 µM |  |
| CN1CCN(CCN2C(=O)c3cc(NCCCN4CCOCC4)c4c5c(cc(NCCCN6CCOCC6)c(c35)C2=O)C(=O)N(CCN2CCN(C)CC2)C4=O)CC1 [SKM036] | 2 | 8 | 26 | 31 | 28 | 32 | 33 | 36 | 0.005 ± 0.001 µM | 0.3 ± 0.016 µM | 0.02 ± 0.001 µM | 0.18 ± 0.002 µM | 0.16 ± 0.021 µM | 0.005 ± 0.001 µM | 0.021 ± 0.001 µM |  |
| CN1CCN(CCCN2C(=O)c3cc(NCC4CCOCC4)c4c5c(cc(NCC6CCOCC6)c(c35)C2=O)C(=O)N(CCCN2CCN(C)CC2)C4=O)CC1 [SKM052] | 0 | 0 | <2 | 22 | 3 | 23 | 2 | 27 | 1.1 ± 0.13 µM | 2.2 ± 0.015 µM | 0.46 ± 0.01 µM | 2.8 ± 0.23 µM | 0.29 ± 0.002 µM | 0.137 ± 0.031 µM | 0.51 ± 0.017 µM |  |

From US9493460B2, “Diimide compounds” (UCL BUSINESS PLC, priority 2013, dated 2016)
